Measured values as given in ChEMBL document CHEMBL3576797, “Pyridopyrimidinone Derivatives as Potent and Selective c-Jun N-Terminal Kinase (JNK) Inhibitors” (ACS Med Chem Lett, 2015).

What was measured:
[1] = Half life in human liver microsomes; type: ADME
[2] = Half life in mouse liver microsomes; type: ADME
[3] = Oral bioavailability in mouse at 3 mg/kg by LC-MS/MS analysis; type: ADME, organism-based; settings: in vivo
[4] = Cmax in mouse at 0.5 mg/kg, iv by LC-MS/MS analysis; type: ADME, organism-based; parameters: dose 0.5 mg/kg, route intravenous; settings: in vivo
[5] = AUC in mouse at 0.5 mg/kg, iv by LC-MS/MS analysis; type: ADME, organism-based; settings: in vivo
[6] = Half life in mouse at 0.5 mg/kg, iv by LC-MS/MS analysis; type: ADME, organism-based; settings: in vivo
[7] = Clearance in mouse at 0.5 mg/kg, iv by LC-MS/MS analysis; type: ADME, organism-based; settings: in vivo
[8] = Volume of distribution in mouse at 0.5 mg/kg, iv by LC-MS/MS analysis; type: ADME, organism-based; settings: in vivo

half-life [1] [min]	half-life [2] [min]	bioavailability [3] [%]	Cmax [4] [nM]	AUC [5] [µM·h]	half-life [6] [min]	clearance [7] [mL/min/kg]	Vd [8] [L/kg]	SMILES
44	19	66	1000	0.7	30	33	1.3	CC(C)C(=O)N[C@H]1CC[C@H](Nc2ncc3ccc(=O)n(C(C)C)c3n2)CC1
76	22	87	900	0.8	66	28	1.8	CC(C)NC(=O)N[C@H]1CC[C@H](Nc2ncc3ccc(=O)n(C(C)C)c3n2)CC1
16	8	–	–	–	–	–	–	CCNC(=O)N[C@H]1CC[C@@H](Nc2ncc3ccc(=O)n(C(C)C)c3n2)CC1

The next lines start with the compound.

SMILES	half-life [1] [min]	half-life [2] [min]	bioavailability [3] [%]	Cmax [4] [nM]	AUC [5] [µM·h]	half-life [6] [min]	clearance [7] [mL/min/kg]	Vd [8] [L/kg]
CC(C)n1c(=O)ccc2cnc(N[C@H]3CC[C@H](O)CC3)nc21	> 120	23	10	–	–	–	–	–
CCNC(=O)N[C@H]1CC[C@H](Nc2ncc3ccc(=O)n(C(C)C)c3n2)CC1	46	17	100	600	0.3	18	72	1.9
CCNC(=O)N1CCC(Nc2ncc3ccc(=O)n(C(C)C)c3n2)CC1	65	14	43	1100	0.7	24	33	1
CC(C)NC(=O)N[C@H]1CC[C@H](Nc2ncc3ccc(=O)n(C4CCCC4)c3n2)CC1	7	5	–	–	–	–	–	–
